{"source": "patent US20060148760A1", "about": "“Method for the sysnthesis of compounds of formula I and their uses thereof” (TransTech Pharma, priority 2000, published 2006)", "test_system": "S-100b/RAGE interaction in Glioma cells", "assay": "Functional assay: inhibition of NF-κB in Glioma cells (S-100b/RAGE interaction)", "format": "cell-based", "details": "Glioma cell", "note": "Counter-ions that a name gives are not always drawn."}
{"smiles": "CCCCOc1cc(C(=O)OCCN(CC)CC)ccc1NC(=O)[C@H](N)Cc1ccc2ccccc2c1", "note": "[Example 1, (R)-3-(2-Naphthyl)-2-aminopropionic Acid 4-Diethylaminoethoxycarbonyl-2-butoxyaniline Amide Dihydrochloride]", "values": [{"measurement": "IC50", "value": 3.3, "unit": "µM"}]}
